Laboratory results: ChEMBL document CHEMBL4342517, “Design, Synthesis, and Mechanism Study of Benzenesulfonamide-Containing Phenylalanine Derivatives as Novel HIV-1 Capsid Inhibitors with Improved Antiviral Activities” (J Med Chem, 2020)
pEC50, pIC50, pKd: −log10 of the molar value. The source made the active and inactive calls. The rule behind the calls is not given here.

What was measured:
[1] = human, microsomes
Description: Intrinsic clearance in human liver microsomes in presence of NADPH regenerating system by LC-MS/MS analysis

[2] = human, microsomes; remark: listed apart in the source
Description: Half life in human liver microsomes in presence of NADPH regenerating system by LC-MS/MS analysis

TZM = assay: Cytotoxicity in uninfected human TZM-bl assessed as reduction in cell viability incubated for 1 day by Cyto-tox-Glo cytotoxicity assay; assay type: cell-based; conditions: 24 h
MT4 = assay: Cytotoxicity in mock-infected human MT4 assessed as reduction in cell viability incubated for 5 days by MTT assay; assay type: cell-based; conditions: mt4, 120 h
[3] = tested on: Human immunodeficiency virus 1; assay: Induction of increase in CA/p24 content in HIV1 NL4-3 infected in human TZM-bl cells at 10 uM by ELISA relative to control; assay type: functional
[4] = target: Structural capsid protein (Human immunodeficiency virus 1) (UniProt Q76129); assay: Induction of HIV1 NL4-3 capsid protein assembly at 50 uM measured every 1 min for 19 mins
[5] = tested on: Human immunodeficiency virus 1; assay: Antiviral activity against HIV1 Env-pseudotyped virus in human U87.CD4.CCR5 target cells assessed as reduction in viral infection at early stage; assay type: functional, organism-based; conditions: Human immunodeficiency virus 1, U87/CD4/CCR5
[6] = tested on: Human immunodeficiency virus 1; assay: Antiviral activity against HIV1 Env-pseudotyped virus in human U87.CD4.CCR5 target cells assessed as reduction in viral infection at late stage; assay type: functional, organism-based; conditions: Human immunodeficiency virus 1, U87/CD4/CCR5
[7] = Stability in human plasma assessed as compound remaining level at 2 uM incubated for 120 mins at 37 degC by LC-MS/MS analysis; assay type: ADME, cell-free; conditions: 2 h
[8] = tested on: Human immunodeficiency virus 1; assay: Antiviral activity against HIV1 NL4-3 infected in human TZM-bl cells assessed as reduction in virus induced cytopathogenicity incubated for 1 day by luciferase reporter gene assay; assay type: functional, organism-based; conditions: Human immunodeficiency virus 1, NL4-3, TZM-bl, 24 h
[9] = target: Structural capsid protein (Human immunodeficiency virus 1) (UniProt Q76129); assay: Inhibition of HIV1 NL4-3 capsid protein assembly at 50 uM measured every 1 min for 19 mins
[10] = tested on: Human immunodeficiency virus 1; assay: Antiviral activity against HIV1 3B infected in human MT4 cells assessed as reduction in virus-induced cell death incubated for 5 days by MTT assay; assay type: functional, organism-based; conditions: Human immunodeficiency virus 1, 3B, MT4, 120 h
[11] = tested on: Human immunodeficiency virus 2; assay: Antiviral activity against HIV2 ROD infected in human MT4 cells assessed as reduction in virus-induced cell death incubated for 5 days by MTT assay; conditions: Human immunodeficiency virus 2, ISOLATE ROD, MT4, 120 h
[12] = target: T1, Structural capsid protein (Human immunodeficiency virus 1, UniProt Q76129); assay: Binding affinity to HIV1 NL4-3 capsid protein hexamer by SPR analysis
[13] = target: T1, Structural capsid protein; assay: Binding affinity to HIV1 NL4-3 capsid protein monomer by SPR analysis

T1 sequence (Q76129 whole entry): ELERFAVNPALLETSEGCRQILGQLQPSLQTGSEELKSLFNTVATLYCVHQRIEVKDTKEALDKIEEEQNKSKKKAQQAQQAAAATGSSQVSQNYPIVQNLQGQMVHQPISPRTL
Structural capsid protein (Human immunodeficiency virus 1), sequence (Q76129 as listed by the source): as the sequence (Q76129 whole entry) above

SMILES | CC50 (TZM) | pEC50 [8] | further results
O=C(O)Cc1ccccc1Nc1c(Cl)cccc1Cl [DICLOFENAC] |  |  | CLH [1]: 93.6 µL/min/mg; t1/2 [2]: 14.8 min
Cc1[nH]c2ccccc2c1CC(=O)N[C@@H](Cc1ccccc1)C(=O)N(C)c1ccccc1 | > 47 µM |  | CLH [1]: 1080.3 µL/min/mg; CC50 (MT4): 145 µM; Activity [3]: 40%; Activity [4]: Active; pIC50 [5]: 7.25; pIC50 [6]: 6.64; Stability [7]: 69%
COc1ccc(N(C)C(=O)[C@H](Cc2ccccc2)NC(=O)CNS(=O)(=O)c2ccccc2N)cc1 | > 40.3 µM | 5.04 | 
COc1ccc(N(C)C(=O)[C@H](Cc2ccccc2)NC(=O)CN2CCN(S(=O)(=O)c3ccc(OC)cc3)CC2=O)cc1 | > 33.6 µM | 6.19 | 
COc1ccc(N(C)C(=O)[C@H](Cc2ccccc2)NC(=O)CN2CCN(S(=O)(=O)c3cccc([N+](=O)[O-])c3)CC2=O)cc1 | > 32.8 µM | 6.17 | 
COc1ccc(N(C)C(=O)[C@H](Cc2ccccc2)NC(=O)CNS(=O)(=O)c2ccc(F)cc2)cc1 | > 40 µM | 5.17 | 
COc1ccc(N(C)C(=O)[C@H](Cc2ccccc2)NC(=O)CN2CCN(S(=O)(=O)c3cccc(F)c3)CC2=O)cc1 | > 34.3 µM | 6.35 | 
COc1ccc(N(C)C(=O)[C@H](Cc2ccccc2)NC(=O)CN2C(=O)N(CC(=O)N[C@@H](Cc3ccccc3)C(=O)N(C)c3ccc(OC)cc3)S(=O)(=O)c3cc(Cl)ccc32)cc1 | > 22.7 µM | 5.32 | 
COc1ccc(N(C)C(=O)[C@H](Cc2ccccc2)NC(=O)CN2CCN(S(=O)(=O)c3ccc(Cl)cc3)CC2=O)cc1 | > 33.4 µM | 5.98 | 
COc1ccc(N(C)C(=O)[C@H](Cc2ccccc2)NC(=O)CNS(=O)(=O)c2cccc(F)c2)cc1 | > 40 µM | 5.25 | CC50 (MT4): 136 µM; inhibition [9]: Active; pIC50 [5]: 5.09; pEC50 [10]: 4.61; pIC50 [6]: 5.38; pEC50 [11]: 4.70
COc1ccc(N(C)C(=O)[C@H](Cc2ccccc2)NC(=O)CNS(=O)(=O)c2ccc([N+](=O)[O-])cc2)cc1 | > 38 µM | < 4.42 | 
COc1ccc(N(C)C(=O)[C@H](Cc2ccccc2)NC(=O)CNS(=O)(=O)c2ccccc2[N+](=O)[O-])cc1 | > 38 µM | 5.06 | 
COc1ccc(N(C)C(=O)[C@H](Cc2ccccc2)NC(=O)CN2CCN(S(=O)(=O)c3cccc(N)c3)CC2=O)cc1 | > 34.5 µM | 6.48 | pKd [12]: 5.52; pKd [13]: 5.00
COc1ccc(N(C)C(=O)[C@H](Cc2ccccc2)NC(=O)CN2C(=O)Nc3ccc(C)cc3S2(=O)=O)cc1 | > 37.3 µM | 5.22 | 
COc1ccc(N(C)C(=O)[C@H](Cc2ccccc2)NC(=O)CNS(=O)(=O)c2cccc(N)c2)cc1 | > 40.3 µM | 5.08 | 
COc1ccc(N(C)C(=O)[C@H](Cc2ccccc2)NC(=O)CN2CCN(S(=O)(=O)c3ccc(C)cc3)CC2=O)cc1 | > 34.6 µM | 6.30 | 
COc1ccc(N(C)C(=O)[C@H](Cc2ccccc2)NC(=O)CNS(=O)(=O)c2ccc(C)cc2)cc1 | > 40.4 µM | 5.20 | 
COc1ccc(N(C)C(=O)[C@H](Cc2ccccc2)NC(=O)CN2CCN(S(=O)(=O)c3ccccc3N)CC2=O)cc1 | > 34.5 µM | 6.27 | 
COc1ccc(N(C)C(=O)[C@H](Cc2ccccc2)NC(=O)CN2C(=O)Nc3ccc(OC)cc3S2(=O)=O)cc1 | > 36.2 µM | 5.31 | 

SMILES | CC50 (TZM) | pEC50 [8] | further results
COc1ccc(N(C)C(=O)[C@H](Cc2ccccc2)NC(=O)CNS(=O)(=O)c2c(C(C)C)cc(C(C)C)cc2C(C)C)cc1 | > 32.9 µM | 5.10 | 
COc1ccc(N(C)C(=O)[C@H](Cc2ccccc2)NC(=O)CNS(=O)(=O)c2ccccc2F)cc1 | > 40 µM | 4.97 | 
COc1ccc(N(C)C(=O)[C@H](Cc2ccccc2)NC(=O)CN2C(=O)Nc3ccccc3S2(=O)=O)cc1 | > 38.3 µM | 5.68 | CC50 (MT4): 130 µM; inhibition [9]: Active; pIC50 [5]: 5.71; pEC50 [10]: 5.22; pIC50 [6]: 5.61; pEC50 [11]: 5.57
COc1ccc(N(C)C(=O)[C@H](Cc2ccccc2)NC(=O)CNS(=O)(=O)c2ccc(Cl)cc2)cc1 | > 38.8 µM | 5.01 | 
COc1ccc(N(C)C(=O)[C@H](Cc2ccccc2)NC(=O)CN2C(=O)N(CC(=O)N[C@@H](Cc3ccccc3)C(=O)N(C)c3ccc(OC)cc3)S(=O)(=O)c3cc(F)ccc32)cc1 | > 23.1 µM | 5.42 | pKd [12]: 5.89; pKd [13]: 6.70
COc1ccc(N(C)C(=O)[C@H](Cc2ccccc2)NC(=O)CN2CCN(S(=O)(=O)c3ccccc3F)CC2=O)cc1 | > 34.3 µM | 6.32 | 
COc1ccc(N(C)C(=O)[C@H](Cc2ccccc2)NC(=O)CN2CCN(S(=O)(=O)c3ccccc3)CC2=O)cc1 | > 35.4 µM | 6.43 | CC50 (MT4): 109 µM; pEC50 [10]: 6.15; pEC50 [11]: 7.49
COc1ccc(N(C)C(=O)[C@H](Cc2ccccc2)NC(=O)CNS(=O)(=O)c2ccc(OC)cc2)cc1 | > 39.1 µM | 4.98 | 
COc1ccc(N(C)C(=O)[C@H](Cc2ccccc2)NC(=O)CNS(=O)(=O)c2cc(C)cc(C)c2)cc1 | > 39.2 µM | 5.04 | 
COc1ccc(N(C)C(=O)[C@H](Cc2ccccc2)NC(=O)CN2CCN(S(=O)(=O)c3ccccc3[N+](=O)[O-])CC2=O)cc1 |  | 6.00 | 
COc1ccc(N(C)C(=O)[C@H](Cc2ccccc2)NC(=O)CNS(=O)(=O)c2ccc(Br)cc2)cc1 | > 35.7 µM | 5.09 | 
COc1ccc(N(C)C(=O)[C@H](Cc2ccccc2)NC(=O)CN2C(=O)N(CC(=O)N[C@@H](Cc3ccccc3)C(=O)N(C)c3ccc(OC)cc3)S(=O)(=O)c3cc(Br)ccc32)cc1 | > 21.6 µM | 5.25 | 
COc1ccc(N(C)C(=O)[C@H](Cc2ccccc2)NC(=O)CNS(=O)(=O)c2c(C)cc(C)cc2C)cc1 | > 38.2 µM | 4.97 | 
COc1ccc(N(C)C(=O)[C@H](Cc2ccccc2)NC(=O)CN2CCN(S(=O)(=O)c3ccc(Br)cc3)CC2=O)cc1 | > 31.1 µM | 6.44 | 
COc1ccc(N(C)C(=O)[C@H](Cc2ccccc2)NC(=O)CNS(=O)(=O)c2ccc(N)cc2)cc1 | > 40.3 µM | 5.18 | 
COc1ccc(N(C)C(=O)[C@H](Cc2ccccc2)NC(=O)CN2CCN(S(=O)(=O)c3ccc([N+](=O)[O-])cc3)CC2=O)cc1 | > 32.8 µM | 6.52 | CC50 (MT4): 8.89 µM; pEC50 [10]: 5.31; pEC50 [11]: 6.80
COc1ccc(N(C)C(=O)[C@H](Cc2ccccc2)NC(=O)CN2CCN(S(=O)(=O)c3ccc(F)cc3)CC2=O)cc1 | 25.7 µM | 5.97 | 
COc1ccc(N(C)C(=O)[C@H](Cc2ccccc2)NC(=O)CNS(=O)(=O)c2cccc([N+](=O)[O-])c2)cc1 | > 38 µM | 5.05 | 
COc1ccc(N(C)C(=O)[C@H](Cc2ccccc2)NC(=O)CNS(=O)(=O)c2ccccc2)cc1 | > 41.5 µM | 5.21 | 
